In patent US6962808B2, “Method and apparatus for measurement of the effect of test compounds on signal transduction at the level of biological receptors” (The University of Louisville Research Foundation, priority 1998, dated 2005):

Molecular target: T1, human estrogen receptor binding to ERE (Homo sapiens, UniProt P03372)
T1 construct: ubiquitin (fusion partner); made in house; host or cells: Saccharomyces cerevisiae strain AF103, YEpE10 plasmid, CUP1 promoter
Assay: Evanescent fiber optic sensor, ERE fiber, binding of Cy5-tagged hER to the estrogen response element
Type: biochemical
Protocol: This solution comprised said calibration standard of component 6a. […] This receptor preparation was used as the calibration solution. Immediately after preparation it was pipetted in 135 μl aliquots into microcentrifuge tubes, snap frozen and stored at −80° C. They were not thawed again until they were used with the fiber sensor.

T1 sequence (P03372 whole entry, the tested form may be a part): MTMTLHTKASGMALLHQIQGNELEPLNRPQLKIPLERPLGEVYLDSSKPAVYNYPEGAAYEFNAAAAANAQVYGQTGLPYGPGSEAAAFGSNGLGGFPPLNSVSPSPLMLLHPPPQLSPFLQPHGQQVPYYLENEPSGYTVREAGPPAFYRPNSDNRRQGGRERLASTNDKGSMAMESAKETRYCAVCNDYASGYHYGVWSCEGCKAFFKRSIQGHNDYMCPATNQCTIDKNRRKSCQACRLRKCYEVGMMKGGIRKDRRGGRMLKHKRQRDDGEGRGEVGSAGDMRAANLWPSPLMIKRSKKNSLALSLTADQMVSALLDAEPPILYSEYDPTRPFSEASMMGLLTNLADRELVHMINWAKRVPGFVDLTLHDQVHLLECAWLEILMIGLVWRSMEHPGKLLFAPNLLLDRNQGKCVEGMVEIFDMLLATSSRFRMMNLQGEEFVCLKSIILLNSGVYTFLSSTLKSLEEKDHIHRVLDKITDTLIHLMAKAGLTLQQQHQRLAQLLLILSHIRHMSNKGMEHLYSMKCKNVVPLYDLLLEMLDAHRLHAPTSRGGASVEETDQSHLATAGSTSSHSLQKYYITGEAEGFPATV

Structure (SMILES): C[C@H]1CCCC(=O)CCC/C=C/c2cc(O)cc(O)c2C(=O)O1 [zearalenone]
- Response of ERE fiber to hER and 10^−6 M compound (control = 3.51) (S/C value, control = 3.51): 5.01
- effect on binding of hER to the ERE fiber (in words, 10^−6 M compound): increase binding to the ERE more than do the weak biological estrogens
